The source of these data is publication PMC9146695, “Globularia alypum L. and Related Species: LC-MS Profiles and Antidiabetic, Antioxidant, Anti-Inflammatory, Antibacterial and Anticancer Potential” (Pharmaceuticals, 2022).

In brackets after ≈: the same amount, converted by molar mass. Like-named read-outs stand apart in the source and are kept apart here. A value given as a limit tells only on which side of the number the result lay.

One test deals with α-glucosidase. Conditions: cited from earlier work.
The nature of test [1]: DPPH radical scavenging activity assay. Conditions: methanolic aerial parts extracts (Soxhlet); 30 min. On the procedure:
Antiradical activity was assessed using the free radical 2,2-diphenyl-1-picrylhydrazyl (DPPH) according to the previously described procedure. Methanolic stock solution of DPPH (0.1 mM) was dissolved to obtain absorbance of 0.70 ± 0.02. In 2 mL of prepared solution, 10 µL sample was added. After 30 min incubation, absorbance was measured at 517 nm with methanol used as blank. Results are expressed as concentrations observed to reduce the DPPH radical absorbance by 50% (IC50).
Background: DPPH is a stable violet radical that fades when it is reduced.

The conditions of test [2]: cited from earlier work.
A further test concerns S. aureus. Conditions: cited from earlier work.
The next test has as its system E. coli. On the set-up: method as in doi:10.1016/j.sajb.2010.04.010. Conditions: range given for both compounds; cited from earlier work.
In another test the test system is P. aeruginosa. Conditions: given for both compounds; cited from earlier work.
Another test deals with E. faecalis. Conditions: range given for both compounds; cited from earlier work.
For test [3], the system named is B. subtilis, B. cereus and S. aureus. On the set-up: method as in earlier work. Conditions: cited from earlier work.
Where [4] appears, read: compounds from Origanum majorana leaves.
[5] abbreviates: constituents of G. alypum and standards, read-out: DPPH radical scavenging IC50.
Where [6] appears, read: isolated compounds of Clerodendrum bungei.

A word on the IC50: it is the point on the concentration scale where inhibition reaches its midpoint. As for `O=c1cc(-c2ccc(O)cc2)oc2cc(O)c(O)c(O)c12` [6-hydroxyapigenin, 6-hydroxyapigenin (scutellarein)], at α-glucosidase (setting [4]), the IC50 is 12 µM.

As to `O=c1cc(-c2ccc(O)c(O)c2)oc2cc(O[C@@H]3O[C@H](CO)[C@@H](O)[C@H](O)[C@H]3O)c(O)c(O)c12` [6-hydroxyluteolin 7-O-glucoside, 6-Hydroxyluteolin 7-O-glucoside], on α-glucosidase (setting [4]), the IC50 was 300 µM.

For the compound `O=c1cc(-c2ccc(O)c(O)c2)oc2cc(O)c(O)c(O)c12` [6-hydroxyluteolin], the IC50 at α-glucosidase (setting [4]) was 10 µM.

As for `O=C(O)c1cc(O)c(O)c(O)c1` [Gallic Acid, gallic acid], the “DPPH radical scavenging activity IC50” value in test [1] was 0.64 µg/mL.

As to `Cc1c(C)c2c(c(C)c1O)CCC(C)(C(=O)O)O2` (stereo not shown) [Trolox], in test [1], the “DPPH radical scavenging activity IC50” value amounted to 2.71 µg/mL.

With `Cc1cc(C(C)(C)C)c(O)c(C(C)(C)C)c1` [butylated hydroxytoluene], the IC50 in test [2] (setting [5]) is 30 µM.

Consider `O=C(/C=C/c1ccc(O)c(O)c1)O[C@H]1[C@H](O)[C@@H](O)[C@H](OCCc2ccc(O)c(O)c2)O[C@@H]1CO` [calceolarioside A, Calceolarioside A (Desrhamnosyl verbascoside)], for which the IC50 in test [2] (read-out: DPPH IC50) is 22.9 µM.

Consider `O=C(/C=C/c1ccc(O)c(O)c1)OC[C@H]1O[C@@H](OCCc2ccc(O)c(O)c2)[C@H](O)[C@@H](O)[C@@H]1O` [calceolarioside B, Calceolarioside B (Desrhamnosyl isoverbascoside)], for which the IC50 in test [2] (read-out: DPPH IC50) is 26.2 µM.

As for `OCCc1ccc(O)c(O)c1` [hydroxytyrosyl moiety], the IC50 on α-glucosidase was 150 µM.

For the compound `C[C@@H]1O[C@@H](O[C@@H]2[C@@H](O)[C@H](OCCc3ccc(O)c(O)c3)O[C@H](COC(=O)/C=C/c3ccc(O)c(O)c3)[C@H]2O)[C@H](O)[C@H](O)[C@H]1O` [isoverbascoside, Isoverbascoside (Isoacteoside)], the “MIC, anti-staphylococcal activity” value with S. aureus is 130 µg/mL (≈ 208 µM). Besides, the IC50 on α-glucosidase (setting [6]) is 100 µM. Further, in the test with E. coli, the “MIC against E. coli” value is 100 to 250 µg/mL. Further, the “MIC against P. aeruginosa” value in the test with P. aeruginosa is 250 µg/mL (≈ 400 µM). For the same compound, the “MIC against E. faecalis” value in the test on E. faecalis was 100 to 150 µg/mL.

Consider `COc1cc(/C=C/C(=O)O[C@H]2[C@H](O[C@@H]3O[C@@H](C)[C@H](O)[C@@H](O)[C@H]3O)[C@@H](O)[C@H](OCCc3ccc(O)c(O)c3)O[C@@H]2CO)ccc1O` [leucosceptoside A, Leucosceptoside A], for which, at α-glucosidase (setting [6]), the IC50 was 700 µM.

Regarding `O=c1cc(-c2ccc(O)c(O)c2)oc2cc(O[C@@H]3O[C@H](CO)[C@@H](O)[C@H](O)[C@H]3O)cc(O)c12` [luteolin 7-O-glucoside], in test [3], the “MIC against B. subtilis, B. cereus and S. aureus” value was 50 to 90 µg/mL.

As to `O=c1cc(-c2ccc(O)c(O)c2)oc2cc(O)cc(O)c12` [luteolin], the IC50 at α-glucosidase (setting [4]) is more than 500 µM.

For the compound `O=c1c(O)c(-c2ccc(O)c(O)c2)oc2cc(O)cc(O)c12` [quercetin], the IC50 in test [2] (setting [5]) is 7.8 µM.

Consider `O=c1cc(-c2ccc(O)cc2)oc2c([C@@H]3O[C@H](CO)[C@@H](O)[C@H](O)[C@H]3O)c(O)c([C@@H]3O[C@H](CO)[C@@H](O)[C@H](O)[C@H]3O)c(O)c12` [vicenin-2, Vicenin-2 (Apigenin-6,8-di-C-glucoside)], for which the IC50 on α-glucosidase is 271 µM.
